Reference: PMC8772772, “Enantioselective Synthesis and Pharmacological Evaluation of Aza-CGP37157–Lipoic Acid Hybrids for the Treatment of Alzheimer’s Disease” (Antioxidants, 2022)
Where two headings read alike, the source gives them in different places.

Experiments:
[1] = test system: SH-SY5Y neuroblastoma cells; assay: Neuroprotection against rotenone/oligomycin A oxidative stress in SH-SY5Y cells (MTT); type: cell-based, human; settings: compound 1 μM 24 h, then compound + R/O (30/10 μM) 24 h; for % Survival: basal = 100, R/O alone 53.4
Procedure: (§1) Human neuroblastoma SH-SY5Y cells were plated in 96-well clear multi-well plates (6 × 10^4 cells/well). The potential neuroprotective activity of compounds against OS was evaluated using the rotenone (30 μM) (SigmaAldrich, R8875) and oligomycin A (10 μM) (SigmaAldrich, 75351) (R/O) toxic mixture. Neuroprotection activity against Tau hyperphosphorylation was evaluated by using the okadaic acid (20 nM) model. Cells were pre-incubated with each compound (1 µM) for 24 h, and then treatments were removed and cells were incubated with compounds (1 µM) in the presence the corresponding toxic for additional 24 h. At the end of the experiments, viability was determined by the MTT method. Data were normalized from cell death induced by the toxic stimuli (considered as 100% cell death). Then, the protection percentages were calculated by subtracting from the death induced by toxic stimuli, the death in the presence of the compound.
(§2) The tetrazolium ring of MTT can be cleaved by active dehydrogenases to produce a formazan precipitate. At the end of the experiments, MTT (SigmaAldrich, M2003) stock solution was added to each well to achieve a final concentration of 0.5 mg/mL. Cells were incubated for 2 h. Thereafter, culture media was removed, and DMSO was added to each well to dissolve the formazan precipitate. Finally, absorbance was measured in a microplate reader (SPECTROstar nano, BMG Labtech) at 570 nm. Absorbance obtained in basal conditions was considered as 100% cell viability.
Thus, we selected a pre-incubation protocol to evaluate their potential neuroprotective capacity based on the NRF2-induction activity and direct antioxidant effect. Compound pre-incubation would induce the expression of antioxidant enzymes regulated by the phase II antioxidant response, thus promoting cells’ survival. The co-incubation period would also evaluate their capacity to trap free radicals produced by intoxicated mitochondria. SH-SY5Y neuroblastoma cells were treated with compounds (1 µM) during 24 h, and then cells were co-incubated with the corresponding compound at the same concentration and the R/O combination (30/10 µM) for additional 24 h. Melatonin, a well-known antioxidant natural neurohormone, was included as a positive control (1 µM). Previously reported racemic derivatives (rac-3a and (rac,R)-3b) and their precursors ((±)-6, R-6 and S-6) were included for comparative purposes at the same concentration.

[2] = DPPH reduction assay, antioxidant capacity; settings: for DPPH Scavenging at 100 µM, %: compound 100 µM; for DPPH Scavenging at 100 µM, % / DPPH Scavenging at 1mM, %: DPPH 100 µM, 30 min, mean ± SEM; for DPPH Scavenging at 1mM, %: compound 1 mM; for IC50: mean ± SEM of three experiments
Procedure: Antioxidant capacity was evaluated by using described procedure slightly modified. Compounds (0.1 and 1 mM, final concentration) were diluted in assay media (EtOH/H2O, 70:30) and mixed with 100 μL of DPPH (SigmaAldrich, D9132, Madrid, Spain) solution (100 μM final concentration) in a clear 96-multiwell plate. Final solution was kept in dark for 30 min, and absorbance of DPPH was measured in a SpectroStar Nano plate-reader (BMG Labtech, Ortenberg, Germany) in duplicate at […]. All experiments included a blank (assay media), control (DPPH 100 μM) and a positive control (ascorbic acid, 100 μM). Data were evaluated as % absorbance (Abs) reduction of control after subtracting blank absorbance. % DPPH reduction = [100 − ((Abssample − Absblank) × 100]/Abscontrol
Initially, we evaluated the free-radical-scavenging capacity of derivatives 7a–d in the DPPH assay, based on the capacity of the tested derivatives to react with the 2,2-diphenyl-1-picrylhydracil radical to generate a non-radical derivate. Hybrid derivatives 7a–d were evaluated at two different concentrations (0.1 and 1 mM), considering the activities of previously reported racemic derivatives. […] Ascorbic acid was used as a positive control, and CGP37157, rac-3a and (rac,R)-3b were included as references. […] Those results are similar to those obtained for racemic mixtures 3a and 3b and a mixture of (S,R)-7b and (R,R)-7d obtained from rac-3 and R-lipoic acid.

[3] = Cytotoxicity in SH-SY5Y cell line (MTT); type: cell-based; settings: human
Procedure: SH-SY5Y human neuroblastoma cells were seeded in 96-well clear multi-well plates (6 × 10^4 cells/well). Cells were treated with increasing concentrations of compounds (10, 30 and 100 μM) for 24 h. Thereafter, viability was assessed by the MTT method. Cytotoxic concentration to observe 50% mortality (CC50) values for compounds were interpolated from dose–response curves represented as percentage of cell death vs. concentration of compound, fitted by non-linear regression and data interpolated to value 50.
as §2
In order to evaluate the potential pharmacological profile of new compounds, we first tested the potential neurotoxicity in the neuroblastoma SHSY5Y cell line. Toxicity was evaluated at increasing concentrations (10, 30 and 100 μM), and toxicity was measured as MTT reduction capability. CC50 values were calculated by non-linear regression of curves % survival vs. concentration (Supplementary Materials Figure S2). CGP37157 and previously studied racemic derivatives rac-3a and (rac,R)-3b were included as reference compounds. As previously described, LA is a non-neurotoxic compound at the concentrations texted.

[4] = test system: NRF2; assay: NRF2 induction, luciferase expression in AREc32 cell line; type: cell-based; settings: AREc32 cells, 0.3, 3, 10 and 30 μM (LA: 0.1–0.6 mM), 24 h; mean ± SEM
Procedure: AREc32 cell line was kindly shared by Professor Roland Wolf (University of Dundee, UK). AREc32 cells were maintained in DMEM/glutamax/high glucose (Gibco, 61965-06, Madrid, Spain), supplemented with 1% penicillin–streptomycin (10,000 units) (SigmaAldrich, P4333, Madrid, Spain), geneticin (0.8 mg/mL) (Gibco, 11811-031) and 10% FBS (Gibco, 10270106), at 37 °C in a 5% CO2 air atmosphere. Cells were used from passage 4 to 18, and mycoplasma contamination was tested every 4 weeks. AREc32 cells were seeded in 96-well white plates (2 × 10^4 cells/well) for 24 h. Thereafter, cells were treated with each compound (0.3, 3, 10 and 30 µM) in duplicate for 24 h. Non-treated cells were included as basal luciferase expression and tert-butylhydroquinone (TBHQ, 10 μM) as positive control in each plate. Luciferase expression was evaluated by using the Luciferase Assay System (Promega, E1483, Madrid, Spain) by luminescence in an Orion II microplate luminometer (Berthold, Germany). Luciferase activity increase was normalized to basal conditions considered as 1. CD values (concentration required to double the luciferase activity) were calculated from dose–response curves of luciferase fold induction vs. compound concentration, fitted by non-linear regression and data interpolated to value 2.
To evaluate the influence of both stereogenic centers in the NRF2 induction capacity of aza-CGP37157-LA hybrids, we used the AREc32 cell line model by analyzing luciferase expression upon treatment with NRF2 inducers. AREc32 cells were exposed to increasing concentrations of tested compounds 7a–d (0.3, […], 10 and 30 μM) during 24 h; thereafter, luciferase expression was evaluated by luminescent assay to calculate the corresponding CD value (concentration to double luciferase expression). […] TBHQ was included as a positive control, and CGP37157, S- and R-LA, rac-3a and (rac,R)-3b and precursors derivatives (R-6 and S-6) were included for comparative purposes. […] Once R-LA is reduced, it might activate the phase II antioxidant response by acting as pro-oxidant over key Cys residues at KEAP1 to generate the corresponding lipoyl-cystinyl disulphide.

[5] = test system: SH-SY5Y neuroblastoma cells; assay: Neuroprotection against okadaic acid hyperphosphorylation in SH-SY5Y cells (MTT); type: cell-based, human; settings: compound 1 μM 24 h, then compound + OA 24 h; for % Survival: basal = 100, OA alone 54.7; for % Protection: n.p = compound does not protect cells
Procedure: as §1, §2
Considering these precedents, we envisaged the evaluation of our compounds in a hyperphosphorylation toxicity model induced by okadaic acid (OA), a protein phosphatase 2A inhibitor [58, 59]. This inhibition causes an imbalance between kinase and phosphatase action, leading to hyperphosphorylation of proteins, in particular, Tau. Thus, treatment of SH-SY5Y neuroblastoma cells with OA is a well-stablished model of Tau hyperphosphorylation. Similarly, to the method used for the OS model, we selected a pre-incubation/co-incubation protocol to evaluate the potential neuroprotection capacity related to the NRF2 induction/antioxidant properties of the compounds. Cells were treated with compounds (±)-6, R-6, S-6 or 7a–d (1 µM) during 24 h; thereafter, cells were co-treated with compounds (1 µM) and OA (20 nM) for a further 24 h. Melatonin was also included as a positive control. Finally, cellular viability was evaluated by the MTT method. […] Finally, the (R,S)-7c diastereomer was not able to afford any protection, a result that might be in line with its low NRF2 induction capacity.

[6] = test system: NRF2; settings: AREc32 cells, 24 h; Table S1; ref [2] of the supplement; cited from earlier work
[7] = test system: BV2 microglial cells; assay: Nitrite production reduction in LPS-stimulated BV2 microglial cells (Griess); type: cell-based, mouse; settings: Mus musculus, BV-2; 24 h pretreatment 0.3, 3, 10, 30 μM, then compound + LPS 100 ng/mL 18 h, Griess
Procedure: BV2 microglial cells were seeded at 2 × 10^4 cells/well and treated with compounds at increasing concentrations during 24 h in complete culture media. Then, treatments were removed, and BV2 cells were co-incubated with compounds and LPS (100 ng/mL) (O127:B8, SigmaAldrich, L3129) for additional 18 h in culture media supplemented with 1% FBS. Each plate included non-treated cells as basal nitrite production. Thereafter, nitrite production was determined by using the modified Griess assay. In brief, samples (150 μL) were mixed with DAPSONE (75 μL) (SigmaAldrich, A74807) and NEDA (75 μL) (SigmaAldrich, 33461), and the mixture was incubated at room temperature for 5 min. Light absorption was measured at 550 nm in a microplate reader (SPECTROstar nano, BMG Labtech). Basal nitrite production was referred to as 100% of nitrite production, and all data were normalized to the basal condition. Concentration needed to reduce nitrite production to 50% was calculated from graphical representation of percentage of nitrite production vs. compound concentration, and data were fitted by non-linear regression and interpolated to 50%.
Chronic neuroinflammation is considered a key pathological event in the early stages of AD development. Among immune cells present at CNS, microglia is related to host defense and tissue repair. Nonetheless, chronic neuroinflammation induced by an adverse environment of protein aggregates and exacerbated OS induces a neurotoxic activity of microglia that, finally, leads to neuronal death. […] To this end, we selected the BV2 microglial cell model stimulated by lipopolysaccharide (LPS), a TLR4 agonist that activates the pro-inflammatory response. CGP37157, R- and S-LA; analogue compounds rac-3a and (rac,R)-3b; and precursor derivatives 6 were included with comparative and reference purposes. Microglial BV2 cells were treated with increasing concentrations of the corresponding compound (0.3, 3, 10 and 30 µM) for 24 h following a pre-incubation protocol. Thereafter, treatments were exchanged by a combination of the corresponding compound at desired concentration and LPS (100 ng/mL) during 18 h. At the end of this period, nitrite production was evaluated by the Griess method as an indirect measurement of iNOS enzyme expression and BV2 activation.

Structure (SMILES)	% Protection [1]	% Survival [1]	DPPH Scavenging at 100 µM, % [2]	DPPH Scavenging at 1mM, % [2]	CC50 at 24 h [3]	CD (concentration required to double the specific luciferase activity) [4]	% Survival [5]	% Protection [5]	CD (concentration required to double the specific luciferase activity) [6]	IC50 [2]	IC50 [7]
O=C1CN(CCO)[C@H](c2ccccc2Cl)c2cc(Cl)ccc2N1 [Compound S-6, (5S)-7-Chloro-5-(2-chlorophenyl)-4-(2-hydroxyethyl)-4,5-dihydro-1H-benzo[e][1,4]diazepin-2(3H)-one]	51.5%	74.7 ± 2.5%	8.47 ± 2.42%	25.3 ± 1.5%	> 100 µM	14.4 ± 0.2 µM	71.5 ± 10.0%	41.9%			
O=C1CN(CCO)C(c2ccccc2Cl)c2cc(Cl)ccc2N1 (racemic) [(±)-6, (rac)-7-Chloro-5-(2-chlorophenyl)-4-(2-hydroxyethyl)-4,5-dihydro-1H-benzo[e][1,4]diazepin-2(3H)-one, reference compound]		74.4 ± 4.1%					69.1 ± 6.4%	33.4%	> 30 µM		
Cc1c(C)c2c(c(C)c1O)CCC(C)(C(=O)O)O2 (stereo not drawn) [Trolox, reference compound]			93.4 ± 0.5%	92.2 ± 0.5%						11.4 ± 1 µM	
O=C1CN(CCO)[C@@H](c2ccccc2Cl)c2cc(Cl)ccc2N1 [Compound R-6, (5R)-7-Chloro-5-(2-chlorophenyl)-4-(2-hydroxyethyl)-4,5-dihydro-1H-benzo[e][1,4]diazepin-2(3H)-one]	45.7%	75.1 ± 2.9%	10.30 ± 1.10%	26.7 ± 1.3%	> 100 µM	11.8 ± 0.5 µM	59.3 ± 10.6%	14.2%			
O=C1O[C@H]([C@@H](O)CO)C(O)=C1O [Ascorbic acid, reference compound]										16.2 ± 0.7 µM	
O=C(O)CCCC[C@H]1CCSS1 [(S)-Lipoic acid, reference compound]						> 600 µM					> 30 µM
COc1ccc2[nH]cc(CCNC(C)=O)c2c1 [Mel, Melatonin, reference compound]	46.1%	68.0 ± 1.5%					70.3 ± 4.3%	31.1%			
